# Measurements taken from patent publication US20110092476A1, “Bicycloheteroaryl compounds as P2X7 modulators and uses thereof” (Renovis, Inc., priority 2006, published 2011).
# Target: T1, P2X7 receptor (Homo sapiens, UniProt Q99572)
# T1 construct: host or cells: THP-1 cells differentiated with LPS and IFN-γ
# T1 sequence (Q99572 1-595): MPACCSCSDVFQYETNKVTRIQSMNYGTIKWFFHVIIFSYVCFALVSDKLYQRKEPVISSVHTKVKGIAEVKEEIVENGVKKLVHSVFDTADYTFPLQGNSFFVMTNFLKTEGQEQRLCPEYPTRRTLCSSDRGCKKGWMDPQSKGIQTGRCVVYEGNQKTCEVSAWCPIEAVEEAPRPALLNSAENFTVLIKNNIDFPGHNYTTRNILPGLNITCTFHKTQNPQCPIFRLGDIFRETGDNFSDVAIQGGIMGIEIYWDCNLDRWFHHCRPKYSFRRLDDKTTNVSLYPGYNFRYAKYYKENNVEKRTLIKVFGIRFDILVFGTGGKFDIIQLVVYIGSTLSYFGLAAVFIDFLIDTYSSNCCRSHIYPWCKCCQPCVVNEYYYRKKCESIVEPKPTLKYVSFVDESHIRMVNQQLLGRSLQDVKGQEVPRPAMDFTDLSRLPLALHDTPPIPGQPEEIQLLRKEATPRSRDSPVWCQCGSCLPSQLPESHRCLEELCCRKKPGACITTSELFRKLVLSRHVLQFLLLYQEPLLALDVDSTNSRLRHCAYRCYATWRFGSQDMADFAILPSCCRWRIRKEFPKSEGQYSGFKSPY
# Assay: IL-1β release assay in differentiated THP-1 cells stimulated with BzATP (Example 9)
# Type: cell-based
# Conditions: 0.1 μM compound (symbols *); differentiated THP-1 cells, BzATP 250 uM; read-out: IL-1β % Inhib. @ 0.3 or 0.1 uM
# Procedure: THP-1 cells (ATCC Cat #285-IF-100) are plated in 96 well plates at a concentration of 200,000 cells per well and allowed to differentiate in RPMI-1640 media (ATCC Cat #30-2001) containing 10% FBS, 100 IU/mL penicillin, 100 ug/mL streptomycin, 100 ng/mL LPS and 100 ng/mL IFN-γ for 16 hours. Following differentiation, the cells are treated for an additional 2 hours in RPMI-1640 media containing 100 IU/mL penicillin, 100 ug/mL streptomycin and fresh LPS at 100 ng/mL. The cells are then pretreated for 30 minutes with the compound of interest at the appropriate concentration in RPMI media containing 100 IU/mL penicillin, 100 ug/mL streptomycin. Following the pretreatment 2′,3′-O-(4-benzoylbenzoyl)-adenosine 5′-triphosphate (Sigma Aldrich Cat #B6396) is added to a final concentration of 250 uM and the cells are incubated for an additional 45 minutes. 30 uL of cell supernatant is then collected and IL-1β levels determined via ELISA (R&D systems Cat. #HSLB50) according to manufacturer's recommendations using the Tecan Safire plate reader. Background adjusted IL-1β levels of drug treated and non-treated cells are used to calculate the percent inhibition.
# The compounds set forth in Table 1 were tested for activity in a cellular model as described herein. Specifically, cells were pretreated with differing amounts of the compound under test and released IL-1β determined as in Example 9, above. Measurements were made and IC50 values, presented in Table 2, below, were determined by fitting the data to a four parameter logistic equation using GraphPad Prism software (GraphPad Software, Inc). The equation may be expressed by the following formula:
# Y=Bottom+(Top−Bottom)/(1+10̂((Log EC50−X)*HillSlope))
# Where X is the logarithm of concentration, Y is the response and Y starts at Bottom and goes to Top with a sigmoid shape.
row,Compound,inhibition at 0.1 µM [%]
1,COc1ccc(CC(=O)Nc2cccc3c(=O)n(CC(C)O)ccc23)cc1C (centres unmarked) [Compound 177],0 to 25
2,CC(C)(C)c1ccc(C(=O)Nc2cccc3c(=O)n(CC4(O)CCCCC4)ccc23)cc1 [Compound 23],0 to 25
3,Cc1ccc(C)c(CC(=O)Nc2cccc3c(=O)n(CC(C)O)ccc23)c1 (centres unmarked) [Compound 130],26 to 50
4,Cc1cccc(C(=O)Nc2cccc3c(=O)n(CC(C)O)ccc23)c1C (centres unmarked) [Compound 140],0 to 25
5,COc1ccc(C(=O)Nc2cccc3c(=O)n(CC(C)O)ccc23)cc1C (centres unmarked) [Compound 183],26 to 50
6,Cc1ccc(C(=O)Nc2cccc3c(=O)n(CC4(O)CCCCC4)ccc23)c(C)c1 [Compound 86],0 to 25
7,Cc1ccc(Cl)cc1C(=O)Nc1cccc2c(=O)n(CC(C)O)ccc12 (centres unmarked) [Compound 179],0 to 25
8,CCOc1cccc(C(=O)Nc2cccc3c(=O)n(C(C)CO)ccc23)c1 (centres unmarked) [Compound 93],0 to 25
9,Cc1ccc(Cl)cc1C(=O)Nc1cccc2c(=O)n(C(C)CO)ccc12 (centres unmarked) [Compound 122],0 to 25
10,Cc1ccc(C)c(CC(=O)Nc2cccc3c(=O)n(CC(C)(C)O)ccc23)c1 [Compound 191],0 to 25
11,COc1ccccc1CCC(=O)Nc1cccc2c(=O)n(CC(C)O)ccc12 (centres unmarked) [Compound 149],0 to 25
12,COc1cccc(CC(=O)Nc2cccc3c(=O)n(CC(C)O)ccc23)c1 (centres unmarked) [Compound 158],0 to 25
13,Cc1ccc(C(=O)Nc2cccc3c(=O)n(CC(C)O)ccc23)cc1Cl (centres unmarked) [Compound 168],0 to 25
14,CC(O)Cn1ccc2c(NC(=O)Cc3ccccc3F)cccc2c1=O (centres unmarked) [Compound 153],0 to 25
15,COc1ccc(C(=O)Nc2cccc3c(=O)n(CC(C)(C)O)ccc23)cc1Cl [Compound 192],0 to 25
16,CC(O)Cn1ccc2c(NC(=O)Cc3cccc4ccccc34)cccc2c1=O (centres unmarked) [Compound 151],0 to 25
17,CCOc1ccccc1CC(=O)Nc1cccc2c(=O)n(CC(C)O)ccc12 (centres unmarked) [Compound 176],0 to 25
18,CCOc1ccc(CC(=O)Nc2cccc3c(=O)n(CC(C)O)ccc23)cc1 (centres unmarked) [Compound 161],0 to 25
19,Cc1cccc(CC(=O)Nc2cccc3c(=O)n(CC(C)O)ccc23)c1 (centres unmarked) [Compound 159],0 to 25
20,CC(O)Cn1ccc2c(NC(=O)CCCc3ccccc3)cccc2c1=O (centres unmarked) [Compound 163],0 to 25
21,CC(C)(O)Cn1ccc2c(NC(=O)c3ccc(-c4ccccc4)o3)cccc2c1=O [Compound 188],0 to 25
22,Cc1ccc(Cl)c(C(=O)Nc2cccc3c(=O)n(C(C)CO)ccc23)c1 (centres unmarked) [Compound 121],0 to 25
23,Cc1cc(C)c(CC(=O)Nc2cccc3c(=O)n(CC(C)(C)O)ccc23)c(C)c1 [Compound 190],0 to 25
24,COc1ccc(CC(=O)Nc2cccc3c(=O)n(CC(C)O)ccc23)cc1 (centres unmarked) [Compound 160],0 to 25
25,COc1ccc(OC)c(CC(=O)Nc2cccc3c(=O)n(CC(C)O)ccc23)c1 (centres unmarked) [Compound 156],26 to 50

# Same assay, conditions: 0.1 μM compound; differentiated THP-1 cells, BzATP 250 uM; "*" symbols; read-out: IL-1β % Inhib. @ 0.3 or 0.1 uM
row,Compound,inhibition at 0.1 µM [%]
1,COc1cccc(CC(=O)Nc2cccc3c(=O)n(CC(C)(C)O)ccc23)c1 [Compound 212],26 to 50
2,COc1ccccc1CC(=O)Nc1cccc2c(=O)n(CC(C)(C)O)ccc12 [Compound 209],0 to 25
3,CC(C)(O)Cn1ccc2c(NC(=O)Cc3ccccc3F)cccc2c1=O [Compound 207],0 to 25
4,Cc1cc(C)cc(CC(=O)Nc2cccc3c(=O)n(CC(C)(C)O)ccc23)c1 [Compound 226],0 to 25
5,Cc1ccccc1C(=O)Nc1cccc2c(=O)n(CC(C)(C)O)ccc12 [Compound 200],0 to 25
6,CC(C)(O)Cn1ccc2c(NC(=O)Cc3ccccc3Cl)cccc2c1=O [Compound 208],0 to 25

# Same assay, conditions: 0.3 μM compound (symbols +); differentiated THP-1 cells, BzATP 250 uM; read-out: IL-1β % Inhib. @ 0.3 or 0.1 uM
row,Compound,inhibition at 0.3 µM [%]
1,Cc1ccc(CC(=O)Nc2cccc3c(=O)n(CC4(O)CCCCC4)ccc23)cc1 [Compound 35],26 to 50
2,COc1ccc(OC)c(CC(=O)Nc2cccc3c(=O)n(CCO)ccc23)c1 [Compound 77],0 to 25
3,O=C(Cc1ccc2c(c1)OCO2)Nc1cccc2c(=O)n(CC3(O)CCCCC3)ccc12 [Compound 38],0 to 25
4,O=C(Cc1cccc2ccccc12)Nc1cccc2c(=O)n(CC3(O)CCCCC3)ccc12 [Compound 26],0 to 25
5,COc1ccc(CC(=O)Nc2cccc3c(=O)n(CC4(O)CCCCC4)ccc23)cc1 [Compound 33],0 to 25
6,Cc1ccc(Cl)c(C(=O)Nc2cccc3c(=O)n(CC4(O)CCCCC4)ccc23)c1 [Compound 51],0 to 25
7,O=C(Nc1cccc2c(=O)n(CCO)ccc12)c1ccccc1 [Compound 1],0 to 25
8,O=C(Cc1ccc2c(c1)OCCO2)Nc1cccc2c(=O)n(CCO)ccc12 [Compound 63],0 to 25

# Same assay, conditions: 0.3 μM compound; differentiated THP-1 cells, BzATP 250 uM; "+" symbols; read-out: IL-1β % Inhib. @ 0.3 or 0.1 uM
row,Compound,inhibition at 0.3 µM [%]
1,"O=C(Cc1cccc(C(F)(F)F)c1F)Nc1c(NCCO)ccc2c(=O)n(CCO)ccc12 [Compound 385, 2-(2-Fluoro-3-trifluoromethyl-phenyl)-N-[2-(2-hydroxy-ethyl)-6-(2-hydroxy-ethylamino)-1-oxo-1,2-dihydro-isoquinolin-5-yl]-acetamide]",0 to 25
2,CC(C)(CO)n1ccc2c(NC(=O)Cc3cccc(C(F)(F)F)c3F)cccc2c1=O [Compound 368],> 76
3,C[C@H](C(N)=O)n1ccc2c(NC(=O)Cc3ccc(F)cc3C(F)(F)F)cccc2c1=O [Compound 295],51 to 75
4,CC(C(=O)Nc1cccc2c(=O)n([C@@H](C)C(N)=O)ccc12)c1cccc(C(F)(F)F)c1F (some centres unmarked) [Compound 355],> 76
5,CC(C)[C@H](CO)n1ccc2c(NC(=O)[C@@H](C)c3ccc(Cl)cc3)cccc2c1=O [Compound 274],> 76
6,NC(=O)[C@H](CO)n1ccc2c(NC(=O)Cc3ccc(Cl)c(Cl)c3)cccc2c1=O [Compound 253],26 to 50
7,CC(C)[C@H](C(=O)NC1CC1)n1ccc2c(NC(=O)[C@H](C)c3ccc(Cl)cc3)cccc2c1=O [Compound 282],> 76
8,C[C@H](C(N)=O)n1ccc2c(NC(=O)C(C)(C)c3ccc(Cl)cc3)cccc2c1=O [Compound 264],26 to 50
9,CC(C)(CO)n1ccc2c(NC(=O)Cc3ccc(F)c(C(F)(F)F)c3)cccc2c1=O [Compound 367],> 76
10,CC(C)(CO)n1ccc2c(NC(=O)Cc3ccc(Cl)cc3F)cccc2c1=O [Compound 374],> 76
11,O=C(Cc1cccc(C(F)(F)F)c1F)Nc1c(Cl)ccc2c(=O)n(CCO)ccc12 [Compound 387],> 76
12,C[C@H](CO)n1ccc2c(NC(=O)Cc3ccc(C(F)(F)F)cc3F)c(Cl)ccc2c1=O [Compound 378],> 76
13,C[C@H](C(N)=O)n1ccc2c(NC(=O)Cc3ccc(Cl)cc3C(F)(F)F)cccc2c1=O [Compound 241],> 76
14,O=C(Cc1ccc(F)c(Cl)c1)Nc1cccc2c(=O)n(CCO)ccc12 [Compound 341],> 76
15,C[C@@H](C(N)=O)n1ccc2c(NC(=O)Cc3ccc(Cl)cc3F)cccc2c1=O [Compound 350],> 76
16,COc1ccc2c(=O)n([C@H](C)CO)ccc2c1NC(=O)Cc1ccc(C(F)(F)F)c(F)c1 [Compound 358],0 to 25
17,CC(C)C[C@H](CO)n1ccc2c(NC(=O)Cc3ccc(Cl)c(C(F)(F)F)c3)cccc2c1=O [Compound 280],> 76
18,CC(C)(CO)n1ccc2c(NC(=O)Cc3ccc(F)c(Cl)c3)cccc2c1=O [Compound 372],0 to 25

# Same assay, conditions: THP-1 cells, BzATP 250 uM, IL-1β by ELISA
row,Compound,IC50 [nM]
1,CC(C)[C@H](CO)n1ccc2c(NC(=O)[C@@H](C)c3ccc(Cl)cc3)cccc2c1=O [Compound 274],14.5
2,C[C@H](C(N)=O)n1ccc2c(NC(=O)C(C)(C)c3ccc(Cl)cc3)cccc2c1=O [Compound 264],443
